Data: patent US11779015B2, “Pesticide compositions” (FUNDACIÓ CENTRE DE REGULACIÓ GENÒMICA, priority 2017, dated 2023)

Key:
D. melanogaster = test: Airborne toxicity petri dish assay, adult flies exposed to VOC vapours (FIG. 1A); format: in vivo, Drosophila melanogaster; conditions: for LD50 (expected concentration at which 50% of the flies die): D. melanogaster adults, vapours from solution in paraffin oil, within an hour
From the text: In particular, adult flies 2 were exposed to compositions 4 comprising one or more of a selection of VOCs according to the invention or a comparative example, in a petri dish 6. The compositions 4 were loaded onto the lid 6a of the petri dish 6 and the flies were placed into the base 6b of the dish, which was then covered by a sheet of plastic mesh netting 8 to avoid direct contact of the flies 2 with the compositions 4, before replacing the lid 6a. The onset of paralysis/loss of locomotion control, ultimately resulting in death of the flies 2, was monitored over a period of 1 hour or until all flies 2 were dead, determined when fly wings were vertical (similar to the protocol described in Legal et al. 1992 and 1994).
Having established that the VOCs of the invention are toxic to Drosophila spp., and in particular, D. suzukii, upon exposure to the vapours from a 10% vol. solution, the inventors set out to determine the range of concentrations at which the pesticide VOCs of the invention are expected to be lethal to Drosphila spp. Two species were chosen: the pest D. suzukii and the common Drosophila model D. melanogaster. Two exemplary compounds were chosen: (E)-2-hexenal and methyl benzoate, both of which were shown in Example 1 to be highly toxic to D. suzukii. The experimental set up used was as described in relation to FIG. 1A.
FIGS. 3A and 3C show the proportion of dead flies as a function of time in minutes, when exposed to the vapours of (E)-2-hexenal (FIG. 3A) or methyl benzoate (FIG. 3C) from a 1%, 5%, 10%, or 20% solution in paraffin oil or from pure (E)-2-hexenal or methyl benzoate. […] The data is shown as averages±SEM based on 3 to 6 trials for each condition. […]

D. suzukii = test: Positional and ovipositional preference on food substrate plated with compound; format: in vivo, Drosophila suzukii; conditions: for positional preference/avoidance of adult flies: food plated with compound vs blank, monitored over 5 hours
Experimental: Adult flies 200 are placed in a plastic box 600 with mesh-netting 800 in the lid to allow aeration. Two food sources 400a and 400b (for example petri dishes containing molasses-apple juice agar substrates) are placed into the box 600, of which one 600a is plated with a compound to be tested, and the other 600b is left blank as a control.
Using this experimental set up and pure (E)-2-hexenal or methyl benzoate, the positional preference of the flies was monitored over 5 hours. The ovipositional preference was measured after 24 hours by counting the number of eggs laid on either plate. […] The same experimental set up was used to test for positional and ovipositional preference using different concentrations of (E)-2-hexenal, i.e. 1.2% vol, 3.4% vol, 11.6% vol and 34% vol. The results of these assays are shown on FIG. 7C. All data shown represents the mean+S.E.M. over 2 to 6 trials per condition. In FIG. 7C, deviations marked by a star are associated with a unpaired t-test p-value below 0.05 following a one-way ANOVA test with F(4,22)=3.987 (p=0.017).
Petri dishes (∅ 6 cm) filled with 10 ml of a molasses-apple juice-agar medium acted as food substrate. These were plated with methyl benzoate or (E)-2-hexenal. Two Petri dishes were placed inside a plastic box (32×22×12 cm) with a mesh netting in the lid. One dish was plated with a thin layer of pure odour (1.8 μl (E)-2-hexenal or 0.9 μl methyl benzoate when used pure, or 50 μl of (E)-2-hexenal when used in diluted solutions), and the other was left blank as a control. More (E)-2-hexenal was used because its vapour pressure is 4 times lower than that of methyl benzoate and, thus, is prone to dissipate faster. 20 mixed sex adult flies were placed inside the plastic box and monitored every 0.5 hours, over a period of 5 hours, to assess their positional preference by counting the number of flies positioned on either plate. After 24 hours, their ovipositional preference was monitored by counting the number of eggs laid on either dish. Flies were cooled on ice for handling and discarded after each trial.

D. melangaster larvae = test: Fly larva chemotaxis assay; format: in vivo, Drosophila melanogaster; conditions: D. melanogaster larvae, 1% vol in paraffin oil, 5 minutes
Experimental: Larvae were exposed to 1% vol solution of (E)-2-hexenal or methyl benzoate in paraffin oil loaded onto the lid of a petri dish. Their movement was tracked for 5 minutes. A preference index was quantified as the fraction of time larvae spent in a zone around the odour sources. A population of 15 larvae were used per trial and they were placed in the centre of the petri dish at the start of the experiment. The average distance of the larvae to the odour sources was also quantified over time. The results of this analysis are shown on FIG. 9, for each of the conditions where a VOC of the invention was used. A total of 10 trials were performed for each condition, i.e. for each VOC and fly species, and 30 trials were performed for a control condition, for which only the solvent paraffin oil was applied.
Behavioural experiments were performed with third instar foraging larvae. A group of approximately 15 larvae per trial was placed in a Petri dish and monitored during 5 minutes for their chemotactic behaviour, as larvae were exposed to an odour gradient in gas phase emanating from the two odour sources on the lid of the Petri dish. […] Larval behaviour was tracked using a video camera and the data derived was then analysed in Matlab (MathWorks) using custom-made programs to calculate additional time-series variables, and to determine the preference index and the distance of larvae to the source.

adult D. suzukii flies = test: Petri dish assay, dose-range 0.3 to 10% vol in paraffin oil, 24 h exposure (FIG. 3E); format: in vivo, Drosophila suzukii; conditions: paraffin oil, 24 h exposure (Example 2)
From the text: Data are represented as mean proportion of dead flies, with counts separated between male (as indicated by ‘M’) and female (as indicated by ‘F’) flies. […] Data points marked NaN were not tested at the indicated concentration. The MEC column summarises the minimal effective concentration to induce 100% morbidity/mortality to adult D. suzukii flies.

[1] = D. melanogaster, concentration 1% vol
[2] = D. melanogaster, concentration 5% vol
[3] = D. melanogaster, concentration 10% vol
[4] = D. melanogaster, concentration 20% vol
[5] = D. melanogaster, concentration 100% vol

| SMILES | LD50 (expected concentration at which 50% of the flies die) (D. melanogaster) [% vol] | T50 (D. melanogaster; D. melanogaster, 10% vol) [min] | T50 (time at which 50% of the flies were dead) (D. melanogaster; [1]) | T50 (time at which 50% of the flies were dead) (D. melanogaster; [2]) | T50 (time at which 50% of the flies were dead) (D. melanogaster; [3]) | T50 (time at which 50% of the flies were dead) (D. melanogaster; [4]) [min] | T50 (time at which 50% of the flies were dead) (D. melanogaster; [5]) [min] | positional preference/avoidance of adult flies (D. suzukii) | ovipositional preference (egg-laying) (D. suzukii; food plated with pure compound vs blank, eggs counted after 24 hours) | larval chemotactic response (D. melangaster larvae) | Minimal concentration (%) to induce 100% morbidity/mortality in D. suzukii adults (adult D. suzukii flies) [%] | concentration from which flies avoid laying their eggs on the plated side (D. suzukii; tested 1.2, 3.4, 11.6 and 34% vol, eggs counted after 24 hours) [% vol] |
| --- | --- | --- | --- | --- | --- | --- | --- | --- | --- | --- | --- | --- |
| COC(=O)c1ccccc1 [methyl benzoate, Methyl benzoate] | 7.5 | 18.2 | non lethal | non lethal | 18.2 min | 9.8 | 9.1 | stronger avoidance response | strong egg-laying deterrent | attractive |  |  |
| CCC/C=C/C=O [(E)-2-hexenal] | 13.8 |  | not lethal | not lethal | not lethal | 6.5 | 6.2 | relatively weak |  |  | 4 | ≥ 3.4 |
